Key:
[1] = test system: human genomic DNA (about 1.3 kb) with dUTP added; assay: Evaluation of uracil (dUTP) sensitivity by PCR with dUTP added to the reaction; format: biochemical; details: for Evaluation of dUTP resisitance on a 11-point scale: closer to 0 = stronger sensitivity to dUTP, closer to 10 = lower sensitivity, summary of Examples 1 to 3; for dUTP resistance: dUTP added to 0.5, 5, 50, 100, 200 μM, about 1.3 kb, 30 cycles, 1 U enzyme
How it was run: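 Each enzyme (1 U) amplified about 1.3 kb from 10 ng human genomic DNA in KOD-Plus-Ver. 2 buffer with 1.5 mM MgSO4 and 0.2 mM dNTPs. dUTP was added at final 0.5, 5, 50, 100 and 200 μM, over 30 cycles of 98/65/68° C. Sensitivity is the dUTP level still yielding product on ethidium bromide-stained agarose gel.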

[2] = test system: 482 bp of human β-globin; assay: PCR amplification of 482 bp of human β-globin with dUTP in place of dTTP; format: biochemical; parameters: key to Results of PCR in the presence of dUTP 481 bp: A: Amplified; B: Amplified (faint band); C: Not amplified; details: for Results of PCR in the presence of dUTP 481 bp: dTTP replaced by dUTP, 35 cycles; for PCR amplification of 482 bp with dUTP: 100% dUTP instead of dTTP (FIGS. 5 to 8)
Experimental: 482 bp of human β-globin was amplified to compare the amplification difference between the case of using dTTP and the case of using dUTP in PCR, and the sensitivity to dUTP was examined. For amplification, each enzyme was used after being mixed with 1 μg of a KOD antibody per U of the enzyme. For PCR, components included in KOD-Plus-Ver. 2 (produced by Toyobo Co. Ltd.) were used. General dNTPs (dATP, dTTP, dCTP, dGTP) in an amount of 0.2 mM were added to 50 μl of individual reaction solutions, and dNTPs (dATP, dUTP, dCTP, dGTP) in an amount of 0.2 mM in which dTTP was replaced by dUTP were added to 50 μl of individual reaction solutions. The reaction solutions contained 1× PCR buffer, 1.5 mM MgSO4, primers represented by SEQ ID NOs: 27 and 28 in an amount of 15 pmol for amplifying […], 10 ng of human genomic DNA (produced by Roche), and 1 U of each respective enzyme mixed with the antibody. PCR was performed using a GeneAmp PCR system 9700 (produced by Applied Biosystems) on the following schedule: preliminary reaction at 94° C. for 2 minutes, followed by 35 cycles, each cycle consisting of 98° C. for 10 seconds and 68° C. for 1 minute. After the completion of each individual reaction, each of the resulting reaction solutions was analyzed using to a DNA-1000 kit for MultiNA (produced by Shimadzu Corporation) to confirm amplified DNA fragments. FIGS. 5 and 6 show the results.

| Substance | Evaluation of dUTP resisitance on a 11-point scale [1] | dUTP resistance [1] [µM] | Results of PCR in the presence of dUTP 481 bp [2] | PCR amplification of 482 bp with dUTP [2] | PCR amplification of 482 bp with dUTP ([2]; listed as V93K/Y7A) |
| --- | --- | --- | --- | --- | --- |
| KOD H147E/Y7A/V93K: KOD H147E (exo(+)) mutant with Y7A and V93K | 8 | >200 | A | – | – |
| KOD H147E/Y7A/P36H: KOD H147E (exo(+)) mutant with Y7A and P36H | 8 | >200 | A | – | – |
| KOD N210D/P36R: KOD N210D (exo(−)) mutant with P36R | 8 | >200 | A | – | – |
| KOD H147E/Y7A/P36R: KOD H147E (exo(+)) mutant with Y7A and P36R | 8 | >200 | A | – | – |
| KOD H147E/V93R: KOD H147E (exo(+)) mutant with V93R | 6 | >200 | A | – | – |
| KOD H147E/Y7A/P115Δ: KOD H147E (exo(+)) mutant with Y7A and lacking P115 | 0 | 0 | C | – | – |
| KOD D141A/E143A/P36H: KOD D141A/E143A (exo(−)) mutant with P36H | 8 | >200 | A | – | – |
| KOD D141A/E143A/P36R: KOD D141A/E143A (exo(−)) mutant with P36R | 8 | >200 | A | – | – |
| KOD H147E/Y7A: KOD H147E (exo(+)) mutant with Y7A | 2 | 0.5 | C | – | – |
| KOD N210D/Y7A: KOD N210D (exo(−)) mutant with Y7A | 2 | 5 | C | – | – |
| KOD I142R/Y7A/P36H: KOD I142R (exo(−)) mutant with Y7A and P36H | 8 | >200 | A | – | – |
| KOD N210D/Y7A/P36R: KOD N210D (exo(−)) mutant with Y7A and P36R | 10 | >200 | A | – | – |
| KOD N210D/P115Δ: KOD N210D (exo(−)) mutant lacking P115 | 0 | 0 | C | – | – |
| KOD I142R/P36H: KOD I142R (exo(−)) mutant with P36H | 8 | >200 | A | – | – |
| KOD H147E/P36R/V93K: KOD H147E (exo(+)) mutant with P36R and V93K | 0 | 0 | C | – | – |
| KOD N210D/Y7A/P36H: KOD N210D (exo(−)) mutant with Y7A and P36H | 10 | >200 | A | – | – |
| KOD H147E/V93Q: KOD H147E (exo(+)) mutant with V93Q | 4 | 100 | A | – | – |

| Substance | Evaluation of dUTP resisitance on a 11-point scale [1] | dUTP resistance [1] [µM] | Results of PCR in the presence of dUTP 481 bp [2] | PCR amplification of 482 bp with dUTP [2] | PCR amplification of 482 bp with dUTP ([2]; listed as V93K/Y7A) |
| --- | --- | --- | --- | --- | --- |
| KOD N210D/V93R: KOD N210D (exo(−)) mutant with V93R | 8 | >200 | A | – | – |
| KOD Y7A/V93K: modified KOD DNA polymerase with Y7A and V93K | 8 | >200 | A | allowed for PCR amplification | greatly improve the amplification amount, compared to V93K |
| KOD H147E/P36H/V93K: KOD H147E (exo(+)) mutant with P36H and V93K | 8 | >200 | A | – | – |
| KOD N210D/V93Q: KOD N210D (exo(−)) mutant with V93Q | 6 | >200 | A | – | – |
| KOD D141A/E143A/Y7A: KOD D141A/E143A (exo(−)) mutant with Y7A | 2 | 5 | C | – | – |
| KOD N210D/P36H: KOD N210D (exo(−)) mutant with P36H | 8 | >200 | A | – | – |
| KOD I142R/P36R: KOD I142R (exo(−)) mutant with P36R | 8 | >200 | A | – | – |
| KOD I142R/Y7A/V93K: KOD I142R (exo(−)) mutant with Y7A and V93K | 10 | >200 | A | – | – |
| KOD Y7A/P36H: modified KOD DNA polymerase with Y7A and P36H | 8 | >200 | A | allowed for PCR amplification | – |
| KOD H147E/P36R: KOD H147E (exo(+)) mutant with P36R | 6 | >200 | A | – | – |
| KOD D141A/E143A/Y7A/V93K: KOD D141A/E143A (exo(−)) mutant with Y7A and V93K | 10 | >200 | A | – | – |
| KOD H147E/V93K: KOD H147E (exo(+)) mutant with V93K | 6 | >200 | A | – | – |
| KOD N210D/V93K: KOD N210D (exo(−)) mutant with V93K | 8 | >200 | A | – | – |
| KOD I142R/Y7A: KOD I142R (exo(−)) mutant with Y7A | 2 | 5 | C | – | – |
| KOD D141A/E143A/V93K: KOD D141A/E143A (exo(−)) mutant with V93K | 8 | >200 | A | – | – |
| KOD P36R/V93K: modified KOD DNA polymerase with P36R and V93K | 0 | 0 | C | – | – |
